Patent US6727227B1, “Tetrapetide revealing geroprotective effect, pharmacological substance on its basis, and the method of its application” (Obschestvo S Ogranichennoi Otvetstven-Nostiju “Klinika …, priority 2002, dated 2004)
Like-named read-outs stand apart in the source and are kept apart here. Marks after values point to notes of the source that are not given here. Residues, ends and D or L forms follow the SMILES beside them.

What was measured:
[1] = test system: Drosophila melanogaster of “wild” Canton-S strain; conditions: for ALS ± statistic errors / Alterations in ALS: Canton-S; for Alterations in ALS: versus control
Procedure: In this research Drosophila melanogaster of “wild” Canton-S strain were employed.
L-Ala-L-Glu-L-Asp-Gly tetrapeptide (SEQ ID NO: 1) in the solution form was introduced into the culture medium provided for the growth of insects, which was cooled down to 50-60° C., with subsequent careful stirring and depositing it into test tubes.
To make the conditions of both the control and experimental population development identical, an amount of sodium chloride equal to that used for L-Ala-L-Glu-L-Asp-Gly tetrapeptide (SEQ ID NO: 1) solution was introduced into the culture medium for the control. The concentration of all the substances employed was calculated by the ratio to the mass of the culture medium provided for reproduction.
4-day old female flies underwent a randomly selected mating with males for 72 hours, one couple per each test tube, after which parental couples were removed from the test tubes. To form every new generation the posterity of 50 to 80 couples was used.
Life span (LS) was investigated on laboratory populations, each of them consisting of 90 individuals of each sex. Immediately after hatching the flies were randomly placed in test tubes, 10 individuals in each. Substitution of the culture medium was carried out 3 times a week.
Average values (ALS) and standard errors calculated by the traditional method were applied as life span distribution parameters. Average values were compared to each other with the application of Student t-criterion.
For experimental study 6 concentrations of L-Ala-L-Glu-L-Asp-Gly tetrapeptide (SEQ ID NO: 1) were selected: 0.01×, 0.1×, 1×, 5×, 7.5×, and 12.5×10^−6% of the culture medium weight.

white outbred male mice = assay: Acute toxicity according to Kerber; assay type: in vivo
Procedure: The purpose of the study was to define tolerable toxic doses of the preparation, to estimate the stage and character of pathologic alterations in various organs and systems of the organism, and to identify the correlation between the toxic dose-related effect and the duration of the drug application.
The investigation was carried out on 66 white outbred male mice weighing 20 to 23 g, which were kept under standard regimen and fed upon standard rations in vivarium conditions. The animals were randomly divided into 6 equal groups of 11 mice in each. The animals were exposed to a single administration of the drug intramuscularly, 0.25 ml in doses 1 mg/kg, 2 mg/kg, 3 mg/kg, 4 mg/kg and 5 mg/kg (several thousand times exceeding the therapeutic dose recommended for clinical trial). Control animals were administered the same amount of sodium chloride.

[2] = test system: Drosophila melanogaster of HEM strain; assay: Reproductive function: share of live and fertile cultures, HEM strain; assay type: in vivo; parameters: key to Share of cultures, Live: % of initial test tubes containing live females; key to Share of cultures, Fertile: % of live cultures in which posterity was given; conditions: for Share of cultures, Fertile / Share of cultures, Live: 0.00001% of medium weight
Procedure: Influence of L-Ala-L-Glu-L-Asp-Gly tetrapeptide (SEQ ID NO: 1) upon Drosophila melanogaster was tested at the stage of larvae of the 2nd-3rd age, by means of adding the preparation to culture medium in dose 0.00001% of the medium weight, which approximately made 0.015 mg/100 ml. The flies, hatched on the 1st day, were placed into test tubes, 5 couples in each, and transferred to fresh medium every 3 to 6 days.
There have been considered the following factors:
The share of the test tubes (of their initial amount), which contained live females (in Table 3—the share of live cultures).
The share of the test tubes (of the number of live cultures), in which posterity was given (in Table 3—the share of fertile cultures).
In each experimental variant 75 parental couples were analysed. The distinctions between fertility indices were defined by means of Fischer exact criterion for 2×2-adjustment tables (24).

[3] = test system: Drosophila melanogaster of LA strain; assay: Content of lipid peroxide oxidation products (conjugated hydro-peroxides), LA strain; assay type: in vivo
Procedure: The impact produced by L-Ala-L-Glu-L-Asp-Gly tetrapeptide (SEQ ID NO: 1) on catalase activity, the content of the products of lipid peroxide oxidation (LPO), life span, and the ageing rate were studied in Drosophila melanogaster of LA strain.
L-Ala-L-Glu-L-Asp-Gly tetrapeptide (SEQ ID NO: 1) was applied in the larvae of the 3rd age in dose 0.00001% of the culture medium weight, which constituted approximately 0.015 mg/100 ml. Catalase activity was estimated by generally accepted methods in the homogenates of adult 14 days old flies. The experiment was carried out with a subsequent repetition.
Regression and dispersal analyses served as the basic technique of statistic processing. The authenticity of differences was confirmed by the method of minimal relevant diversity.

[4] = females, concentration 0.01 ×10^−6%
[5] = females, concentration 0.1 ×10^−6%
[6] = females, concentration 1.0 ×10^−6%
[7] = females, concentration 5.0 ×10^−6%
[8] = females, concentration 7.5 ×10^−6%
[9] = females, concentration 12.5 ×10^−6%
[10] = males, concentration 0.01 ×10^−6%
[11] = males, concentration 0.1 ×10^−6%
[12] = males, concentration 1.0 ×10^−6%
[13] = males, concentration 5.0 ×10^−6%
[14] = males, concentration 7.5 ×10^−6%
[15] = males, concentration 12.5 ×10^−6%
[16] = single intramuscular administration, 1-5 mg/kg

## C[C@H](N)C(=O)N[C@@H](CCC(=O)O)C(=O)N[C@@H](CC(=O)O)C(=O)NCC(=O)O [L-Ala-L-Glu-L-Asp-Gly tetrapeptide, L-alanyl-L-glutamyl-L-aspartyl-glycine] (H-AEDG-OH)
[1]; [4]
  ALS ± statistic errors: 35.41 ± 1.07
  Alterations in ALS: 13.4%
[1]; females, concentration 0.01 ×10^−6%, listed as L-Ala-L-Glu-L-Asp-Gly
  Alterations in ALS: +13.4%
[1]; [5]
  ALS ± statistic errors: 35.41 ± 1.07
  Alterations in ALS: 11.8%
[1]; females, concentration 0.1 ×10^−6%, listed as L-Ala-L-Glu-L-Asp-Gly
  Alterations in ALS: +11.8%
[1]; [6]
  ALS ± statistic errors: 35.76 ± 1.35
  Alterations in ALS: −1.1%
[1]; [7]
  ALS ± statistic errors: 38.04 ± 1.56
  Alterations in ALS: +3.2%
[1]; [8]
  ALS ± statistic errors: 31.16 ± 1.21
  Alterations in ALS: −7.6%
[1]; [9]
  ALS ± statistic errors: 37.06 ± 1.12
  Alterations in ALS: +5.6%
[1]; in vivo
  Duration of stage development (lack of genotoxic effect): did not alter the duration of their stage development
[1]; [10]
  ALS ± statistic errors: 36.47 ± 1.09
  Alterations in ALS: +12.0%
[1]; [11]
  ALS ± statistic errors: 34.85 ± 1.18
  Alterations in ALS: +10.8%
[1]; [12]
  ALS ± statistic errors: 36.77 ± 1.44
  Alterations in ALS: +13.3%
[1]; [13]
  ALS ± statistic errors: 37.74 ± 1.16
  Alterations in ALS: +11.3%
[1]; [14]
  ALS ± statistic errors: 39.98 ± 0.99
  Alterations in ALS: −0.03%
[1]; [15]
  ALS ± statistic errors: 33.96 ± 1.01
  Alterations in ALS: −9.0%
White outbred male mice; doses several thousand times exceeding the therapeutic one
  Acute toxic reactions: does not induce acute toxic reactions
White outbred male mice; [16]
  Alterations in general state, behaviour, locomotor activity, hair and skin integument, physiological discharges: No alterations
  Deaths within 72 hours and in 14 days: none of the animals in either of the groups died
[2]; HEM strain
  Coefficient A of lineal regression, fertile culture share on age (y = B + Ax): −2.5 ± 0.37
  Coefficient A of lineal regression, live culture shares on age (y = B + Ax): −1.6 ± 0.17
  Coefficient B of lineal regression, fertile culture share on age (y = B + Ax): 115 ± 11.4
  Coefficient B of lineal regression, live culture shares on age (y = B + Ax): 137 ± 10.6
  Maximal life span attained: 100 days
  “a”-coefficient of fertile-share regression, control higher than experimental variant: 1.8 times
[2]; HEM strain, Table 6
  Average life span: 54 days
[2]; HEM strain, regression analysis
  Share of live cultures decreases faster than in controls: 1.5 times
[2]; HEM strain, versus control
  Extension of the reproduction period: 1.5 fold
[2]; HEM strain, 30 days for cultures not exposed
  Duration of the reproductive period: 47 days
[2]; day 0, HEM strain
  Share of cultures, Fertile: 100 + 0.8
[2]; day 6, HEM strain
  Share of cultures, Fertile: 100 + 0.8
[2]; day 10, HEM strain
  Share of cultures, Fertile: 93 ± 6.9
[2]; day 13, HEM strain
  Share of cultures, Fertile: 93 ± 6.9
[2]; day 19, HEM strain
  Share of cultures, Fertile: 86 ± 9.4
[2]; day 23, HEM strain
  Share of cultures, Fertile: 43 ± 13.2
[2]; day 27, HEM strain
  Share of cultures, Fertile: 31 ± 12.9
  Share of cultures, Live: 93 ± 6.9
[2]; day 32, HEM strain
  Share of cultures, Fertile: 36 ± 14.5
  Share of cultures, Live: 85 ± 10.0
[2]; day 38, HEM strain
  Share of cultures, Fertile: 9 ± 8.7
  Share of cultures, Live: 85 ± 10.0
[2]; day 44, HEM strain
  Share of cultures, Fertile: 9 ± 8.7
  Share of cultures, Live: 85 ± 10.0
[2]; day 50, HEM strain
  Share of cultures, Fertile: 9 ± 8.7
  Share of cultures, Live: 36 ± 12.8
[2]; day 54, HEM strain
  Share of cultures, Fertile: 0 + 0.9
  Share of cultures, Live: 36 ± 12.8
[2]; day 60, HEM strain
  Share of cultures, Fertile: 0 + 0.9
  Share of cultures, Live: 29 ± 12.1
[2]; day 66, HEM strain
  Share of cultures, Fertile: 0 + 0.9
  Share of cultures, Live: 29 ± 12.1
[2]; day 69, HEM strain
  Share of cultures, Fertile: 0 + 0.9
  Share of cultures, Live: 21 ± 10.9
[2]; day 73, HEM strain
  Share of cultures, Fertile: 0 + 0.9
  Share of cultures, Live: 7 ± 6.9
[2]; day 76, HEM strain
  Share of cultures, Fertile: 0 + 0.9
  Share of cultures, Live: 7 ± 6.9
[2]; day 84, HEM strain
  Share of cultures, Fertile: 0 + 0.9
  Share of cultures, Live: 7 ± 6.9
[2]; day 87, HEM strain
  Share of cultures, Fertile: 0 + 0.9
  Share of cultures, Live: 7 ± 6.9
[2]; day 100, HEM strain
  Share of cultures, Fertile: 0 + 0.9
  Share of cultures, Live: 0 + 0.8
[3]; females
  Content of conjugated hydro-peroxides: 1.290* nmole/g of tissue
[3]; males
  Content of conjugated hydro-peroxides: 1.202 nmole/g of tissue
